Measurements: US4401660A, “Ester derivatives of 5-O-mycaminosyl tylonolide and method of using same” (Eli Lilly and Company, priority 1981, dated 1983)
Read-outs that look alike come from different tables or passages of the source.

What was measured:
Pasteurella multocida = test: Treatment of Pasteurella infections in chicks (Table V); type: in vivo, one-day-old chicks; conditions: Pasteurella multocida, sc, 4 h; 30 mg/kg by subcutaneous injection one and four hours post challenge; read-out: Deaths in Treated Chicks/Number Treated (converted)
In short: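 Dosing was 30 mg/kg by subcutaneous injection, one and four hours after challenge. Day-old chicks received 0.1 ml of a 10^-3 dilution of a 20-hour tryptose broth culture of avian P. multocida subcutaneously. Nonmedicated infected chicks served as controls, ten per group.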

[1] = test system: Streptococcus pneumoniae Park I; test: MIC, standard agar-dilution assay (Table II); type: cell-based; set-up: unit not given here
Method: (§1) The MIC's in Table II were determined by standard agar-dilution assays. The MIC's in Table III were obtained using a conventional broth-dilution microtiter test.

[2] = test system: Streptococcus Group D 9960; test: MIC, standard agar-dilution assay (Table II); type: cell-based; set-up: unit not given here
Method: as §1

[3] = test system: Streptococcus pyogenes C203; test: MIC, standard agar-dilution assay (Table II); type: cell-based; set-up: unit not given here
Method: as §1

[4] = test system: Haemophilus influenzae R252; test: MIC, standard agar-dilution assay (Table II); type: cell-based; set-up: unit not given here; conditions: Haemophilus influenzae R252, ampicillin-resistant strain
Method: as §1

[5] = test system: Staphylococcus epidermidis EPI1; test: MIC, standard agar-dilution assay (Table II); type: cell-based; set-up: unit not given here
Method: as §1

[6] = test system: Staphylococcus aureus X1.1; test: MIC, standard agar-dilution assay (Table II); type: cell-based; set-up: unit not given here
Method: as §1

[7] = test system: Staphylococcus aureus V41; test: MIC, standard agar-dilution assay (Table II); type: cell-based; set-up: unit not given here; conditions: Staphylococcus aureus V41, penicillin-resistant strain
Method: as §1

[8] = test system: Streptococcus Group D X66; test: MIC, standard agar-dilution assay (Table II); type: cell-based; set-up: unit not given here
Method: as §1

[9] = test system: Staphylococcus aureus X400; test: MIC, standard agar-dilution assay (Table II); type: cell-based; set-up: unit not given here; conditions: Staphylococcus aureus X400, methicillin-resistant strain
Method: as §1

[10] = test system: Haemophilus influenzae Holt; test: MIC, standard agar-dilution assay (Table II); type: cell-based; set-up: unit not given here; conditions: ampicillin-sensitive strain
Method: as §1

[11] = test system: Staphylococcus aureus S13E; test: MIC, standard agar-dilution assay (Table II); type: cell-based; set-up: unit not given here
Method: as §1

[12] = test system: Staphylococcus epidermidis EPI2; test: MIC, standard agar-dilution assay (Table II); type: cell-based; set-up: unit not given here
Method: as §1

[13] = test system: Streptococcus pyogenes C203; test: ED50 in mice with experimental infections (Table IV); type: in vivo; conditions: Streptococcus pyogenes, doses given 1 and 4 hours postinfection
In short: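 Read-out is ED50, the mg/kg dose protecting half of infected mice; values refer to each of two doses, given 1 and 4 hours after infection.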

[14] = test system: Pasteurella multocida 60A; test: MIC, broth-dilution microtiter test (Table III); type: cell-based; set-up: unit not given here; conditions: avian isolate
Method: as §1

[15] = test system: Pasteurella haemolytica 23C; test: MIC, broth-dilution microtiter test (Table III); type: cell-based; set-up: unit not given here
Method: as §1

[16] = test system: Pasteurella multocida 17E; test: MIC, broth-dilution microtiter test (Table III); type: cell-based; set-up: unit not given here; conditions: bovine isolate
Method: as §1

Mycoplasma synoviae = test: MIC, broth-dilution microtiter test (Table III); type: cell-based; set-up: unit not given here
Method: as §1

Mycoplasma hyorhinis = test: MIC, broth-dilution microtiter test (Table III); type: cell-based; set-up: unit not given here
Method: as §1

[17] = test system: Pasteurella haemolytica 41D; test: MIC, broth-dilution microtiter test (Table III); type: cell-based; set-up: unit not given here
Method: as §1

[18] = test system: Pasteurella multocida 40G; test: MIC, broth-dilution microtiter test (Table III); type: cell-based; set-up: unit not given here
Method: as §1

Mycoplasma gallisepticum = test: MIC, broth-dilution microtiter test (Table III); type: cell-based; set-up: unit not given here
Method: as §1

Staphylococcus aureus = test: MIC, broth-dilution microtiter test (Table III); type: cell-based; set-up: unit not given here
Method: as §1

[19] = test system: Pasteurella multocida 22A; test: MIC, broth-dilution microtiter test (Table III); type: cell-based; set-up: unit not given here
Method: as §1

Streptococcus sp. 80 = test: MIC, broth-dilution microtiter test (Table III); type: cell-based; set-up: unit not given here
Method: as §1

[20] = test system: Pasteurella multocida 68C; test: MIC, broth-dilution microtiter test (Table III); type: cell-based; set-up: unit not given here
Method: as §1

[21] = test system: Pasteurella haemolytica 22C; test: MIC, broth-dilution microtiter test (Table III); type: cell-based; set-up: unit not given here
Method: as §1

[22] = C203, oral, read-out: ED50, Oral
[23] = C203, sc, subcutaneous, read-out: ED50, Subcutaneous

| Structure (SMILES) | mortality at 30 mg/kg (Pasteurella multocida) | minimal inhibitory concentration (MIC) [1] | minimal inhibitory concentration (MIC) [2] | minimal inhibitory concentration (MIC) [3] | minimal inhibitory concentration (MIC) [4] | minimal inhibitory concentration (MIC) [5] | minimal inhibitory concentration (MIC) [6] | minimal inhibitory concentration (MIC) [7] | minimal inhibitory concentration (MIC) [8] | minimal inhibitory concentration (MIC) [9] | minimal inhibitory concentration (MIC) [10] | minimal inhibitory concentration (MIC) [11] | minimal inhibitory concentration (MIC) [12] | ED50 [13, 22] | ED50 [13, 23] | minimal inhibitory concentration (MIC) [14] | minimal inhibitory concentration (MIC) [15] | minimal inhibitory concentration (MIC) [16] | minimal inhibitory concentration (MIC) (Mycoplasma synoviae) | minimal inhibitory concentration (MIC) (Mycoplasma hyorhinis) | further results |
| --- | --- | --- | --- | --- | --- | --- | --- | --- | --- | --- | --- | --- | --- | --- | --- | --- | --- | --- | --- | --- | --- |
| CCC1OC(=O)CC(O)C(C)C(OC2OC(C)C(OC(=O)CC(C)C)C(N(C)C)C2OC(C)=O)C(CC=O)CC(C)C(=O)C=CC(C)=CC1CO (stereo not drawn) [Compound 49, 2'-O-Acetyl-4'-O-isovaleryl-OMT] | 100% | 0.125 | 1 | 0.25 | 1 | 1 | 1 | 2 | 1 | 4 | 1 | 2 | 2 | > 100 mg/kg | > 30 mg/kg | 3.12 | 12.5 | 3.12 | 0.78 | 6.25 | minimal inhibitory concentration (MIC) [17]: 12.5; minimal inhibitory concentration (MIC) [18]: 3.12; minimal inhibitory concentration (MIC) (Mycoplasma gallisepticum): 1.56; minimal inhibitory concentration (MIC) (Staphylococcus aureus): 3.12; minimal inhibitory concentration (MIC) [19]: 6.25; minimal inhibitory concentration (MIC) (Streptococcus sp. 80): 0.39; minimal inhibitory concentration (MIC) [20]: 25; minimal inhibitory concentration (MIC) [21]: 12.5 |
| CCC1OC(=O)CC(O)C(C)C(OC2OC(C)C(O)C(N(C)C)C2OC(C)=O)C(CC=O)CC(C)C(=O)C=CC(C)=CC1COC(=O)C=Cc1ccccc1 (stereo not drawn) [Compound 33] | 80% | 0.125 | 1 | 0.25 | 4 | 0.5 | 0.5 | 0.5 | 1 | 0.5 | 4 | 0.5 | 0.5 | 146 mg/kg | 9.7 mg/kg | 3.12 | 12.5 | 3.12 | 0.39 | 0.78 | minimal inhibitory concentration (MIC) [17]: 12.5; minimal inhibitory concentration (MIC) [18]: 3.12; minimal inhibitory concentration (MIC) (Mycoplasma gallisepticum): 0.05; minimal inhibitory concentration (MIC) (Staphylococcus aureus): 0.39; minimal inhibitory concentration (MIC) [19]: 3.12; minimal inhibitory concentration (MIC) (Streptococcus sp. 80): 0.39; minimal inhibitory concentration (MIC) [20]: 3.12; minimal inhibitory concentration (MIC) [21]: 12.5 |
| CCC1OC(=O)CC(O)C(C)C(OC2OC(C)C(O)C(N(C)C)C2O)C(CC=O)CC(C)C(=O)C=CC(C)=CC1COC(=O)CCCC(=O)OC (stereo not drawn) [Compound 72] | 50% | 0.03 | 0.25 | 0.125 | 1 | 0.25 | 0.125 | 0.25 | 0.25 | 0.25 | 2 | 0.25 | 0.25 | 87 mg/kg | 2.3 mg/kg | 3.12 | 6.25 | 6.25 | 0.78 | 25 | minimal inhibitory concentration (MIC) [17]: 12.5; minimal inhibitory concentration (MIC) [18]: 3.12; minimal inhibitory concentration (MIC) (Mycoplasma gallisepticum): 0.195; minimal inhibitory concentration (MIC) (Staphylococcus aureus): 1.56; minimal inhibitory concentration (MIC) [19]: 3.12; minimal inhibitory concentration (MIC) (Streptococcus sp. 80): 1.56; minimal inhibitory concentration (MIC) [20]: 3.12; minimal inhibitory concentration (MIC) [21]: 12.5 |
